Values belong to the compound of their own block, whether it stands above or below them.
System: 252836-082-R-J2-PDC tumor spheroids, viability
Experiment: Anticancer human tumor 252836-082-R-J2-PDC patient-derived head and neck squamous cell carcinoma cell line growth inhibition [PI3K]
Settings: spheroids with HUVEC and MSC; for IC50: curve of first compound; for viability, T/C: stronger effect = lower value
From the text: Combinatorial screen of targeted agents with the PI3K inhibitors inavolisib, alpelisib, duvelisib, and copanlisib in multi-cell type tumor spheroids
A high-throughput screen of multi-cell type tumor spheroids was designed to identify active combinations of targeted small molecules and PI3K pathway inhibitors. Complex spheroids include a stromal component modeled by human endothelial cells (HUVEC) and fibroblasts modeled by human mesenchymal stem cells (MSCs). The concentration ranges selected for each drug and investigational agent were based upon clinically achievable concentrations if the clinical Cmax of the agent was known.
Compounds. The drugs and investigational agents: inavolisib (NSC800729), alpelisib (NSC765974), duvelisib (NSC772469), copanlisib (NSC816437), ipatasertib (NSC767898), afuresertib (NSC778305), talazoparib (NSC767125), sapanisertib (NSC764658), selumetinib (NSC741078), tovorafenib (DAY101, NSC766906), vemurafenib (NSC761431), ravoxertinib (NSC781343), sotorasib (NSC818433), MRTX1133 (NSC 836407), abemaciclib (NSC 768073), palbociclib (NSC758247), venetoclax (NSC 766270), SY5609 (NSC837396), enzalutamide (NSC755605), and darolutamide (NSC825331), were obtained from the National Cancer Institute (NCI) Developmental Therapeutics Program Chemical Repository. The FDA-approved anticancer drug set is available from the NCI Developmental Therapeutics Program. […] The stock solutions were prepared in dimethyl sulfoxide (DMSO, Sigma-Aldrich, St. Louis, MO, cat. D2650) at 800-fold the tested concentration and stored at -70 degrees C prior to their use. All drugs and investigational agents were tested over a range starting from a high concentration at or near the clinical Cmax and decreasing in half-log increments. If the clinical Cmax for an agent had not been determined, the highest concentration tested was 10 microM.
Cell Culture. All cells were maintained in an incubator at 37 degrees C and 5% CO2 with 95% humidity. The PDC lines were cultured according to standard operating procedures established by the NCI PDMR (https://pdmr.cancer.gov/sops/default.htm). All PDCs were thawed and cultured in Matrigel-coated flasks prepared with a working solution of 1X Ham's F-12 nutrient mix, without supplementation (Invitrogen, Waltham, MA, cat. 11765054), 100 U/mL penicillin-streptomycin (Invitrogen, cat. 15140122), and 2.5% Matrigel (Corning Inc., Corning, NY, cat. 354248) for the first three passages. The 354836-022-R-J1-PDC, 475296-252-R-J1-PDC, and 997726-040-R-J2-PDC lines were cultured in 6A media, which includes advanced DMEM/F-12 (Thermo Fisher Scientific, cat. 12634028), 10 mM HEPES (Thermo Fisher Scientific, cat. 15630080), 1X GlutaMAX supplement (Thermo Fisher Scientific, cat. 35050061), 0.1 mg/mL primocin (InvivoGen, San Diego, CA, cat. ant-pm-2), 10% defined fetal bovine serum, heat inactivated (HyClone Laboratories Inc., Logan, UT, cat. SH30070.03HI), 50% L-WRN conditioned media (ATCC, cat. CRL-3276), 1.25 mM N-Acetyl-L-cysteine (Sigma-Aldrich, cat. A9165), 10 mM nicotinamide (Sigma-Aldrich, cat. N0636), 1X B-27 supplement (Thermo Fisher Scientific, cat. 17504044), 1X N-2 supplement (Thermo Fisher Scientific, cat. 17502048), and 10 microM Y-27632 dihydrochloride (Tocris Bioscience, Bristol, United Kingdom, cat. 1254). The 624824-186-R-J2-PDC line was cultured in 6C/Colon 1B media, which includes all 6A media components plus 50 ng/mL human EGF recombinant protein (Thermo Fisher Scientific, cat. PHG0311). […]

[1] = second compound 0.00316 µM, first compound 0.0316 µM
[2] = second compound 0.00316 µM, first compound 0.1 µM
[3] = second compound 0.00316 µM, first compound 0.316 µM
[4] = second compound 0.00316 µM, first compound 1 µM
[5] = second compound 0.00316 µM, first compound 3.16 µM
[6] = second compound 0.00316 µM, first compound 10 µM
[7] = second compound 0.01 µM, first compound 0.0316 µM
[8] = second compound 0.01 µM, first compound 0.1 µM
[9] = second compound 0.01 µM, first compound 0.316 µM
[10] = second compound 0.01 µM, first compound 1 µM
[11] = second compound 0.01 µM, first compound 3.16 µM
[12] = second compound 0.01 µM, first compound 10 µM
[13] = second compound 0.0316 µM, first compound 0.0316 µM
[14] = second compound 0.0316 µM, first compound 0.1 µM
[15] = second compound 0.0316 µM, first compound 0.316 µM
[16] = second compound 0.0316 µM, first compound 1 µM
[17] = second compound 0.0316 µM, first compound 3.16 µM
[18] = second compound 0.0316 µM, first compound 10 µM
[19] = second compound 0.1 µM, first compound 0.0316 µM
[20] = second compound 0.1 µM, first compound 0.1 µM
[21] = second compound 0.1 µM, first compound 0.316 µM
[22] = second compound 0.1 µM, first compound 1 µM
[23] = second compound 0.1 µM, first compound 3.16 µM
[24] = second compound 0.1 µM, first compound 10 µM
[25] = second compound 0.316 µM, first compound 0.0316 µM
[26] = second compound 0.316 µM, first compound 0.1 µM
[27] = second compound 0.316 µM, first compound 0.316 µM
[28] = second compound 0.316 µM, first compound 1 µM
[29] = second compound 0.316 µM, first compound 3.16 µM
[30] = second compound 0.316 µM, first compound 10 µM
[31] = second compound 1 µM, first compound 0.0316 µM
[32] = second compound 1 µM, first compound 0.1 µM
[33] = second compound 1 µM, first compound 0.316 µM
[34] = second compound 1 µM, first compound 1 µM
[35] = second compound 1 µM, first compound 3.16 µM
[36] = second compound 1 µM, first compound 10 µM
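Note: spheroids exposed to agents for seven days before readout.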
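Throughout, for viability, T/C: percent of vehicle DMSO control viability so 100% = untreated growth.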

IC50 (second compound 0.00316 µM): 5.66 µM
IC50 (second compound 0.01 µM): 5.49 µM
IC50 (second compound 0.0316 µM): 5 µM
IC50 (second compound 0.1 µM): 3.92 µM
IC50 (second compound 0.316 µM): 3.46 µM
IC50 (second compound 1 µM): < 0.0316 µM
Compound: CC1(C)CCC(CN2CCN(c3ccc(C(=O)NS(=O)(=O)c4ccc(NCC5CCOCC5)c([N+](=O)[O-])c4)c(Oc4cnc5[nH]ccc5c4)c3)CC2)=C(c2ccc(Cl)cc2)C1 + CC(Nc1ccc2c(c1)OCCn1cc(N3C(=O)OCC3C(F)F)nc1-2)C(N)=O
viability, T/C [1]: 95.4%
viability, T/C [2]: 81.6%
viability, T/C [3]: 93.3%
viability, T/C [4]: 101%
viability, T/C [5]: 99%
viability, T/C [6]: 6.79%
viability, T/C [7]: 98.6%
viability, T/C [8]: 87%
viability, T/C [9]: 90.1%
viability, T/C [10]: 90.9%
viability, T/C [11]: 84.7%
viability, T/C [12]: 12.2%
viability, T/C [13]: 77.6%
viability, T/C [14]: 83.8%
viability, T/C [15]: 76.5%
viability, T/C [16]: 68.9%
viability, T/C [17]: 90.1%
viability, T/C [18]: 5.56%
viability, T/C [19]: 78.7%
viability, T/C [20]: 64.9%
viability, T/C [21]: 66.1%
viability, T/C [22]: 73%
viability, T/C [23]: 59.8%
viability, T/C [24]: 4.08%
viability, T/C [25]: 70.8%
viability, T/C [26]: 55.3%
viability, T/C [27]: 54.3%
viability, T/C [28]: 56.4%
viability, T/C [29]: 54.3%
viability, T/C [30]: 6.25%
viability, T/C [31]: 47.5%
viability, T/C [32]: 49.6%
viability, T/C [33]: 49.7%
viability, T/C [34]: 47.9%
viability, T/C [35]: 39.7%
viability, T/C [36]: 15.7%

IC50 (second compound 0.00316 µM): > 10 µM
IC50 (second compound 0.01 µM): > 10 µM
IC50 (second compound 0.0316 µM): > 10 µM
IC50 (second compound 0.1 µM): > 10 µM
IC50 (second compound 0.316 µM): 4.55 µM
IC50 (second compound 1 µM): < 0.0316 µM
Compound: C[C@@H](NC(=O)c1ncnc(N)c1Cl)c1ncc(C(=O)Nc2cc(C(F)(F)F)c(Cl)cn2)s1 + CC(Nc1ccc2c(c1)OCCn1cc(N3C(=O)OCC3C(F)F)nc1-2)C(N)=O
viability, T/C [1]: 96.4%
viability, T/C [2]: 76.1%
viability, T/C [3]: 90.9%
viability, T/C [4]: 90.8%
viability, T/C [5]: 77.8%
viability, T/C [6]: 77.9%
viability, T/C [7]: 98.9%
viability, T/C [8]: 91.3%
viability, T/C [9]: 85.5%
viability, T/C [10]: 100%
viability, T/C [11]: 87.4%
viability, T/C [12]: 80.2%
viability, T/C [13]: 84.5%
viability, T/C [14]: 80.5%
viability, T/C [15]: 81.5%
viability, T/C [16]: 88.4%
viability, T/C [17]: 73.8%
viability, T/C [18]: 64%
viability, T/C [19]: 59.6%
viability, T/C [20]: 66.3%
viability, T/C [21]: 61.8%
viability, T/C [22]: 77.5%
viability, T/C [23]: 60.5%
viability, T/C [24]: 58.4%
viability, T/C [25]: 62.9%
viability, T/C [26]: 50.2%
viability, T/C [27]: 53.9%
viability, T/C [28]: 60.4%
viability, T/C [29]: 55.1%
viability, T/C [30]: 42.2%
viability, T/C [31]: 42.1%
viability, T/C [32]: 44.4%
viability, T/C [33]: 46.2%
viability, T/C [34]: 38.2%
viability, T/C [35]: 43.3%
viability, T/C [36]: 32.9%
